Assay results published in US7118895B2, “Process for producing aglycon by using diglycosidase and flavor-improved food containing the aglycon and converting agent to be used in the process” (Amano Enzyme Inc., priority 2000, dated 2006).

Test system: Crude diglycosidase
Assay: Examination of temperature in the conversion into isoflavone aglycons by diglycosidase using soybean materials
Format: biochemical, Penicillium multicolor IAM7153
Set-up: Decomposition efficiency of glycitin family in roasted soy flour / Decomposition efficiency of daidzin family in roasted soy flour / Decomposition efficiency of genistin family in soymilk / Decomposition efficiency of daidzin family in soymilk / Decomposition efficiency of glycitin family in defatted soybean / Decomposition efficiency of daidzin family in defatted soybean: concentration or dose not given beside the values
Procedure, shortened: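 Soybean materials (50 mg) suspended in 20 mM acetate buffer pH 4.0 reacted with crude diglycosidase diluted to 1.88 AU/mL at 80, 65, 55, 45, 37 or 30° C. Reactions stopped with ethanol at 0, 1, 3 and 6 h; isoflavone glycosides and aglycons in supernatant detected by HPLC.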

[1] = 30° C., heat treatment of enzyme no, reaction time 0 h
[2] = 30° C., heat treatment of enzyme no, reaction time 1 h
[3] = 30° C., heat treatment of enzyme no, reaction time 3 h
[4] = 30° C., heat treatment of enzyme no, reaction time 6 h
[5] = 30° C., heat treatment of enzyme yes, reaction time 6 h
[6] = 45° C., heat treatment of enzyme no, reaction time 0 h
[7] = 45° C., heat treatment of enzyme no, reaction time 1 h
[8] = 45° C., heat treatment of enzyme no, reaction time 3 h
[9] = 45° C., heat treatment of enzyme no, reaction time 6 h
[10] = 45° C., heat treatment of enzyme yes, reaction time 6 h
[11] = 45 °C, heat treatment of enzyme: no, 0 h
[12] = 45 °C, heat treatment of enzyme: no, 1 h
[13] = 45 °C, heat treatment of enzyme: no, 3 h
[14] = 45 °C, heat treatment of enzyme: no, 6 h
[15] = 45 °C, heat treatment of enzyme: yes, 6 h
[16] = 55° C., heat treatment of enzyme no, reaction time 0 h
[17] = 55° C., heat treatment of enzyme no, reaction time 1 h
[18] = 55° C., heat treatment of enzyme no, reaction time 3 h
[19] = 55° C., heat treatment of enzyme no, reaction time 6 h
[20] = 55° C., heat treatment of enzyme yes, reaction time 6 h
[21] = 55 °C, heat treatment of enzyme: no, 0 h
[22] = 55 °C, heat treatment of enzyme: no, 1 h
[23] = 55 °C, heat treatment of enzyme: no, 3 h
[24] = 55 °C, heat treatment of enzyme: no, 6 h
[25] = 55 °C, heat treatment of enzyme: yes, 6 h
[26] = 65° C., heat treatment of enzyme no, reaction time 0 h
[27] = 65° C., heat treatment of enzyme no, reaction time 1 h
[28] = 65° C., heat treatment of enzyme no, reaction time 3 h
[29] = 65° C., heat treatment of enzyme no, reaction time 6 h
[30] = 65° C., heat treatment of enzyme yes, reaction time 6 h
[31] = 65 °C, heat treatment of enzyme: no, 0 h
[32] = 65 °C, heat treatment of enzyme: no, 1 h
[33] = 65 °C, heat treatment of enzyme: no, 3 h
[34] = 65 °C, heat treatment of enzyme: no, 6 h
[35] = 65 °C, heat treatment of enzyme: yes, 6 h
[36] = 80° C., heat treatment of enzyme no, reaction time 0 h
[37] = 80° C., heat treatment of enzyme no, reaction time 1 h
[38] = 80° C., heat treatment of enzyme no, reaction time 3 h
[39] = 80° C., heat treatment of enzyme no, reaction time 6 h
[40] = 80° C., heat treatment of enzyme yes, reaction time 6 h
[41] = 80 °C, heat treatment of enzyme: no, 0 h
[42] = 80 °C, heat treatment of enzyme: no, 1 h
[43] = 80 °C, heat treatment of enzyme: no, 3 h
[44] = 80 °C, heat treatment of enzyme: no, 6 h
[45] = 80 °C, heat treatment of enzyme: yes, 6 h

Decomposition efficiency of daidzin family in concentrated soybean protein [1]: not detected
Decomposition efficiency of daidzin family in defatted soybean [1]: 43.3%
Decomposition efficiency of daidzin family in concentrated soybean protein [2]: not detected
Decomposition efficiency of daidzin family in defatted soybean [2]: 46.6%
Decomposition efficiency of daidzin family in concentrated soybean protein [3]: not detected
Decomposition efficiency of daidzin family in defatted soybean [3]: 45.2%
Decomposition efficiency of daidzin family in concentrated soybean protein [4]: not detected
Decomposition efficiency of daidzin family in defatted soybean [4]: 45.1%
Decomposition efficiency of daidzin family in concentrated soybean protein [5]: not detected
Decomposition efficiency of daidzin family in defatted soybean [5]: 45.4%
Decomposition efficiency of daidzin family in soymilk (30 °C, heat treatment of enzyme: no, 0 h): 56.8%
Decomposition efficiency of daidzin family in soymilk (30 °C, heat treatment of enzyme: no, 1 h): 58.2%
Decomposition efficiency of daidzin family in soymilk (30 °C, heat treatment of enzyme: no, 3 h): 52.8%
Decomposition efficiency of daidzin family in soymilk (30 °C, heat treatment of enzyme: no, 6 h): 46.2%
Decomposition efficiency of daidzin family in soymilk (30 °C, heat treatment of enzyme: yes, 6 h): 56.1%
Decomposition efficiency of daidzin family in roasted soy flour (35 °C, heat treatment of enzyme: no, 0 h): not detected
Decomposition efficiency of daidzin family in roasted soy flour (35 °C, heat treatment of enzyme: no, 1 h): not detected
Decomposition efficiency of daidzin family in roasted soy flour (35 °C, heat treatment of enzyme: no, 3 h): not detected
Decomposition efficiency of daidzin family in roasted soy flour (35 °C, heat treatment of enzyme: no, 6 h): not detected
Decomposition efficiency of daidzin family in roasted soy flour (35 °C, heat treatment of enzyme: yes, 6 h): not detected
Decomposition efficiency of daidzin family in concentrated soybean protein [6]: not detected
Decomposition efficiency of daidzin family in defatted soybean [6]: 43.3%
Decomposition efficiency of daidzin family in concentrated soybean protein [7]: not detected
Decomposition efficiency of daidzin family in defatted soybean [7]: 45.5%
Decomposition efficiency of daidzin family in concentrated soybean protein [8]: not detected
Decomposition efficiency of daidzin family in defatted soybean [8]: 43.7%
Decomposition efficiency of daidzin family in concentrated soybean protein [9]: not detected
Decomposition efficiency of daidzin family in defatted soybean [9]: 41.7%
Decomposition efficiency of daidzin family in concentrated soybean protein [10]: not detected
Decomposition efficiency of daidzin family in defatted soybean [10]: 44.3%
Decomposition efficiency of daidzin family in roasted soy flour [11]: not detected
Decomposition efficiency of daidzin family in soymilk [11]: 57.2%
Decomposition efficiency of daidzin family in roasted soy flour [12]: not detected
Decomposition efficiency of daidzin family in soymilk [12]: 50.2%
Decomposition efficiency of daidzin family in roasted soy flour [13]: not detected
Decomposition efficiency of daidzin family in soymilk [13]: 41.1%
Decomposition efficiency of daidzin family in roasted soy flour [14]: not detected
Decomposition efficiency of daidzin family in soymilk [14]: 30.2%
Decomposition efficiency of daidzin family in roasted soy flour [15]: not detected
Decomposition efficiency of daidzin family in soymilk [15]: 55.8%
Decomposition efficiency of daidzin family in concentrated soybean protein [16]: not detected
Decomposition efficiency of daidzin family in defatted soybean [16]: 43.3%
Decomposition efficiency of daidzin family in concentrated soybean protein [17]: not detected
Decomposition efficiency of daidzin family in defatted soybean [17]: 45.0%
Decomposition efficiency of daidzin family in concentrated soybean protein [18]: not detected
Decomposition efficiency of daidzin family in defatted soybean [18]: 42.7%
Decomposition efficiency of daidzin family in concentrated soybean protein [19]: not detected
Decomposition efficiency of daidzin family in defatted soybean [19]: 40.3%
Decomposition efficiency of daidzin family in concentrated soybean protein [20]: not detected
Decomposition efficiency of daidzin family in defatted soybean [20]: 44.1%
Decomposition efficiency of daidzin family in roasted soy flour [21]: not detected
Decomposition efficiency of daidzin family in soymilk [21]: 57.3%
Decomposition efficiency of daidzin family in roasted soy flour [22]: not detected
Decomposition efficiency of daidzin family in soymilk [22]: 50.9%
Decomposition efficiency of daidzin family in roasted soy flour [23]: not detected
Decomposition efficiency of daidzin family in soymilk [23]: 41.1%
Decomposition efficiency of daidzin family in roasted soy flour [24]: not detected
Decomposition efficiency of daidzin family in soymilk [24]: 31.1%
Decomposition efficiency of daidzin family in roasted soy flour [25]: not detected
Decomposition efficiency of daidzin family in soymilk [25]: 50.8%
Decomposition efficiency of daidzin family in concentrated soybean protein [26]: not detected
Decomposition efficiency of daidzin family in defatted soybean [26]: 43.3%
Decomposition efficiency of daidzin family in concentrated soybean protein [27]: not detected
Decomposition efficiency of daidzin family in defatted soybean [27]: 44.7%
Decomposition efficiency of daidzin family in concentrated soybean protein [28]: not detected
Decomposition efficiency of daidzin family in defatted soybean [28]: 41.6%
Decomposition efficiency of daidzin family in concentrated soybean protein [29]: not detected
Decomposition efficiency of daidzin family in defatted soybean [29]: 37.3%
Decomposition efficiency of daidzin family in concentrated soybean protein [30]: not detected
Decomposition efficiency of daidzin family in defatted soybean [30]: 35.2%
Decomposition efficiency of daidzin family in roasted soy flour [31]: not detected
Decomposition efficiency of daidzin family in soymilk [31]: 56.8%
Decomposition efficiency of daidzin family in roasted soy flour [32]: not detected
Decomposition efficiency of daidzin family in soymilk [32]: 51.7%
Decomposition efficiency of daidzin family in roasted soy flour [33]: not detected
Decomposition efficiency of daidzin family in soymilk [33]: 43.9%
Decomposition efficiency of daidzin family in roasted soy flour [34]: not detected
Decomposition efficiency of daidzin family in soymilk [34]: 35.3%
Decomposition efficiency of daidzin family in roasted soy flour [35]: not detected
Decomposition efficiency of daidzin family in soymilk [35]: 42.4%
Decomposition efficiency of daidzin family in concentrated soybean protein [36]: not detected
Decomposition efficiency of daidzin family in defatted soybean [36]: 43.3%
Decomposition efficiency of daidzin family in concentrated soybean protein [37]: not detected
Decomposition efficiency of daidzin family in defatted soybean [37]: 39.8%
Decomposition efficiency of daidzin family in concentrated soybean protein [38]: not detected
Decomposition efficiency of daidzin family in defatted soybean [38]: 28.8%
Decomposition efficiency of daidzin family in concentrated soybean protein [39]: not detected
Decomposition efficiency of daidzin family in defatted soybean [39]: 17.8%
Decomposition efficiency of daidzin family in concentrated soybean protein [40]: not detected
Decomposition efficiency of daidzin family in defatted soybean [40]: 17.4%
Decomposition efficiency of daidzin family in roasted soy flour [41]: not detected
Decomposition efficiency of daidzin family in soymilk [41]: 57.2%
Decomposition efficiency of daidzin family in roasted soy flour [42]: not detected
Decomposition efficiency of daidzin family in soymilk [42]: 50.8%
Decomposition efficiency of daidzin family in roasted soy flour [43]: not detected
Decomposition efficiency of daidzin family in soymilk [43]: 36.4%
Decomposition efficiency of daidzin family in roasted soy flour [44]: not detected
Decomposition efficiency of daidzin family in soymilk [44]: 23.0%
Decomposition efficiency of daidzin family in roasted soy flour [45]: not detected
Decomposition efficiency of daidzin family in soymilk [45]: 21.8%
SMILES: O=C(O)CC(=O)OC[C@H]1O[C@@H](Oc2ccc3c(=O)c(-c4ccc(O)cc4)coc3c2)[C@H](O)[C@@H](O)[C@@H]1O [malonyldaidzin, 6″-O-malonyldaidzin]
